# Source: patent US11547703B2, “Substituted fused heteroaromatic tricyclic compounds as kinase inhibitors and the use thereof” (IMPACT THERAPEUTICS (SHANGHAI), INC, priority 2017, dated 2023)
# Assays:
# ATM enzyme (human) = ATM enzyme (human) (Homo sapiens, UniProt Q13315); assay: ATM kinase assay (HTRF, phosphorylation of GST-cMyc-p53); assay type: biochemical; details: 0.5 h; detected concentration 1 μm
# Method: ATM enzyme (human) was added to the reaction solution containing 30 nM GST-cMyc-p53 and 10 μM Mg/ATP, and then 50 times the concentration of the tested compound (or reference compound AZD0156) dissolved in 100% DMSO was added to the final concentration of 10 μM/1 μM/0.1 μM/0.01 μM. The reaction was initiated by the addition of a Mg/ATP mixture and incubation for 30 minutes at room temperature, the reaction was quenched by the addition of a stop solution containing EDTA. Finally, the detection buffer containing the d2-labeled anti-GST monoclonal antibody and the europium-labeled anti-phospho p53 (Ser15) antibody was added. The plate was then read in time resolved fluorescence mode and the homogeneous time resolved fluorescence (HTRF) signal was determined according to the equation: HTRF=10000×(Em665nm/Em620nm). Each compound sample was repeated in duplicate. The negative control contained all components except the ATM enzyme, and the positive control contained all components. All reactions were quenched by adding EDTA.
# The compounds were serially diluted to 10 concentrations with 100% DMSO at the ratio of 1:3 and 1:10 (the last concentration was negative control of DMSO), then added to the ATM buffer and diluted to a final concentration of 10, 3, 1, 0.3, 0.1, 0.03, 0.01, 0.003, 0.001 and 0 μM, respectively. ATM kinase inhibition was detected by using the method described above. The curve equation for calculating IC50 value is as follows: […]
# wherein, C is the concentration of compound and D is the slope factor. Table 2 summarizes the IC50 values of compounds inhibiting ATM kinase.
# [1] = test system: human colon cancer cell SW620; assay: MTT assay, growth of SW620 cells, compounds combined with CPT-11; assay type: cell-based; details: for IC50: Homo sapiens, SW-620, 120 h, 205 nM CPT-11, 5 days, MTT
# Method: (§1) SW620 cells were digested by trypsinase, centrifuged at 800 rpm for 5 minutes, the supernatant was discarded, resuspended with fresh medium (RPMI 1640 medium+10% FBS) and counted. The cells were seeded into 96-well cell culture plate with appropriate cell density and incubated overnight in a 37° C. 5% CO2 incubator. The stock solutions of the tested compound and the reference compound AZD0156 were serially diluted to 8 concentrations by DMSO at the ratios of 1:3 and 1:10, respectively, and the last concentration was negative control of DMSO (0 μM, the final concentration of DMSO was 1%). 5 μL of each concentration was added to 120 μL of medium (25 times diluted) and mixed by shaking. The overnight cells were taken and the culture medium was removed, 195 μL of fresh medium containing 205 nM CPT-11 was added to each well, and 5 μL of diluted medium containing the corresponding concentration of the tested sample was added respectively, and the culture plate was then placed in the 5% CO2 cell culture incubator at 37° C. for 5 days. After removing the original solution, 100 μL of fresh serum-free DMEM medium containing MTT (0.5 mg/mL) was added to each well, the culture was continued. After 4 hours, the original solution was removed, 100 μL of DMSO was added into each well, the 96-well plates were shaken away from light for 10 minutes and placed in a multi-function reader to read the absorbance at the wavelength of 552/630/690 nm. GraphPad Prism 6.0 was used to analyze the data. The inhibitory activity of compounds on cell proliferation was plotted based on cell viability and compound concentration. The IC50 value was fitted by a sigmoidal dose response curve equation Y=100/(1+10^(Log C−Log IC50)), where C was the concentration of compound.
# [2] = test system: human breast cancer cell MDA-MB-468; assay: MTT assay, growth of MDA-MB-468 cells; assay type: cell-based; details: for IC50: Homo sapiens, MDA-MB-468, 168 h, single agent, 7 days, MTT
# Method: as §1, with “MDA-MB-468 cells” for “SW620 cells”, “1:10, respectively:” for “1:10, respectively, and”, “medium (PRMI 1640+5% FBS)” for “medium containing 205 nM CPT-11”, “for 7 days (On the fourth day, the medium containing drugs was removed and fresh medium containing drugs was added for continuous cultivation).” for “for 5 days.”
# ATM enzyme (human), sequence (Q13315 whole entry): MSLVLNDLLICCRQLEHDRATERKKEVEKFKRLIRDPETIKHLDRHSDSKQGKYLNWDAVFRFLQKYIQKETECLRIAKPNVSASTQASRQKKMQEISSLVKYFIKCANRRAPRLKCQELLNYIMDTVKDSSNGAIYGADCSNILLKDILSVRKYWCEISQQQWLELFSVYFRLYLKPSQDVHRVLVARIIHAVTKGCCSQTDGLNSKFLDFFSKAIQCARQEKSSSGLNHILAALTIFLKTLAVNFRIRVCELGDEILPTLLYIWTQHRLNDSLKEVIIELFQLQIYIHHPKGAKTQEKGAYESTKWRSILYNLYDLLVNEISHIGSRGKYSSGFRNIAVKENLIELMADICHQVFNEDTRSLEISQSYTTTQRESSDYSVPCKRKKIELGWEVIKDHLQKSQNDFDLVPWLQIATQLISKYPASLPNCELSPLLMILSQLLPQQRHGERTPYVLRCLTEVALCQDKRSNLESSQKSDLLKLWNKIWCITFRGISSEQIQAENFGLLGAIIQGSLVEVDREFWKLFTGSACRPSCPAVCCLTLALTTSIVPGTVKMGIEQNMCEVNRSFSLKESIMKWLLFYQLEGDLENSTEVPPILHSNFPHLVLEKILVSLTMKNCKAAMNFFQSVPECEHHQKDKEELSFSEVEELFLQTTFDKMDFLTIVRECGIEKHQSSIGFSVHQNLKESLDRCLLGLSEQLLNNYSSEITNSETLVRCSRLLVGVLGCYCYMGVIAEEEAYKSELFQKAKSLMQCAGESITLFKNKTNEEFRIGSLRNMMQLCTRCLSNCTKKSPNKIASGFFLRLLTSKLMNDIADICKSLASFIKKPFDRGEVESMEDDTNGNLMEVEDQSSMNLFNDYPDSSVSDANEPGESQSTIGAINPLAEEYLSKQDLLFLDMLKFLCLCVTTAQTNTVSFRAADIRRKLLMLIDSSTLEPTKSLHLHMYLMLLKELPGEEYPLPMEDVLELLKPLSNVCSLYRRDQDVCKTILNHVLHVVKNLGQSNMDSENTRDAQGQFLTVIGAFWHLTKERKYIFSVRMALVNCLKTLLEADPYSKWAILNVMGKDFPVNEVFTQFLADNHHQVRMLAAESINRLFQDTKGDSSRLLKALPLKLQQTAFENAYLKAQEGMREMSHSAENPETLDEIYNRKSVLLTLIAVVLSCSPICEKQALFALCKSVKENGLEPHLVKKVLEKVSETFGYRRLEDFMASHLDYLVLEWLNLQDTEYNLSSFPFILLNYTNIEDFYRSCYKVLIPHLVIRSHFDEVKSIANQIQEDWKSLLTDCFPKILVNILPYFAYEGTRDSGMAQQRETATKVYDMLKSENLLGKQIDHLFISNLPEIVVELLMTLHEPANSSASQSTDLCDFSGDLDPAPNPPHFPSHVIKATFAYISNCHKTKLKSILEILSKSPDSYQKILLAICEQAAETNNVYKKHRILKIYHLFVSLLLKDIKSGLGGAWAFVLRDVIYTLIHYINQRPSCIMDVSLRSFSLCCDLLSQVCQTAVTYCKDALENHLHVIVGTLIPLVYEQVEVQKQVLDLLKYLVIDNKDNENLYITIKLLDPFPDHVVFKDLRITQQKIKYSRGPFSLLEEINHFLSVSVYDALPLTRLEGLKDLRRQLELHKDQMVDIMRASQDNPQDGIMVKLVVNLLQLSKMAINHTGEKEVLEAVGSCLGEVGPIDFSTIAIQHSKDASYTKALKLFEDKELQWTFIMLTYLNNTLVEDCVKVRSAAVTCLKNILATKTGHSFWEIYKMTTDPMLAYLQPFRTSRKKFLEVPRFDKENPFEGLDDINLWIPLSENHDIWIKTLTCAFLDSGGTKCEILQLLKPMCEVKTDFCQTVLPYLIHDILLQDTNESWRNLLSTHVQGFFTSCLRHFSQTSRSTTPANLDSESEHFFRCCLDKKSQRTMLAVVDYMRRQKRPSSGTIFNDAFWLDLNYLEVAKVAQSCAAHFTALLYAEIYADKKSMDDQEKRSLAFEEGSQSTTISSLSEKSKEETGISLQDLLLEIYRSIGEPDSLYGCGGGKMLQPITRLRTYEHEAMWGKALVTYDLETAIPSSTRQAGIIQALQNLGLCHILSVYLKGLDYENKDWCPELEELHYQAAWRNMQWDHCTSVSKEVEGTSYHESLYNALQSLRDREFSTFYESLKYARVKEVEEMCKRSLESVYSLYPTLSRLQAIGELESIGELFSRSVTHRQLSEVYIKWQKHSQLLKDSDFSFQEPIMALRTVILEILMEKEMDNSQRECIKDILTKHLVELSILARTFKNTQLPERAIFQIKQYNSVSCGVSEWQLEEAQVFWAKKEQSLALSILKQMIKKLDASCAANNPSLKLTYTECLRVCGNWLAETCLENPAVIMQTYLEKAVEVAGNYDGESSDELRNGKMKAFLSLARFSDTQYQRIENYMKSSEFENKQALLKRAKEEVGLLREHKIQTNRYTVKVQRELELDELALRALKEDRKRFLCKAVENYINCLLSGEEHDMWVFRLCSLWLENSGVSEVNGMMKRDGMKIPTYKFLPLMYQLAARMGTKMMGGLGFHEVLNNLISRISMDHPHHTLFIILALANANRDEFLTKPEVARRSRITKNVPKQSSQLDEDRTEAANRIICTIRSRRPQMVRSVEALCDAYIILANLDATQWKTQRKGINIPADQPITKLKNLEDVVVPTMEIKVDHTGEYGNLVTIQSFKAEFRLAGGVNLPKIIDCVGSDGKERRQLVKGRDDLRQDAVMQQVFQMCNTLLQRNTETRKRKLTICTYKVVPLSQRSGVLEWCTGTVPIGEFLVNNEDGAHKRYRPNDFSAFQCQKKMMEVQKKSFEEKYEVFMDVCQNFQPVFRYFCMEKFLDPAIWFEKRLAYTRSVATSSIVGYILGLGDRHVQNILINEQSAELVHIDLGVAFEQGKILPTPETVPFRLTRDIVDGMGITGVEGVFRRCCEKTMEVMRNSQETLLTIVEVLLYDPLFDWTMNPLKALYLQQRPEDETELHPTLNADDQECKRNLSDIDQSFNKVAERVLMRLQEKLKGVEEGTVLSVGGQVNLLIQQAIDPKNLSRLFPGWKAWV
inhibition at 1 µM (ATM enzyme (human)) [%],IC50 [1] [nM],IC50 [2] [nM],SMILES,growth of SW620 cell (in words) ([1]; MTT assay),growth of MDA-MB-468 cell (in words) ([2]; MTT assay)
60,9310,3660,"CN(C)CCCOc1ccc(-c2ccc3nc4cccc(-n5ccnc5)c4n3c2)cn1 [Example 9, N,N-dimethyl-3-((5-(9-(1H-imidazol-1-yl)benzo[4,5]imidazo[1,2-a]pyridin-2-yl)pyridin-2-yl)oxy) propan-1-amine]",–,–
77,> 10000,> 10000,"CN(C)CCCOc1ccc(-c2ccc3nc4cccc(CN5CCOCC5)c4n3c2)cn1 [Example 10, N,N-dimethyl-3-((5-(9-(morpholinomethyl)benzo[4,5]imidazo[1,2-a]pyridin-2-yl)pyridin-2-yl)oxy)propan-1-amine]",–,–
88,528,703,"CN(C)CCCOc1ccc(-c2ccc3nc4cccc(OC5CCN(C)CC5)c4n3c2)cn1 [Example 12, N,N-dimethyl-3-((5-(9-((1-methylpiperidin-4-yl)oxy)benzo[4,5]imidazo[1,2-a]pyridin-2-yl)pyridin-2-yl)oxy)propan-1-amine]",–,–
39,2420,> 10000,"CN(C)CCCOc1ccc(-c2ccc3nc4cccc(NC5CCN(C)CC5)c4n3c2)cn1 [Example 15, N,N-dimethyl-3-((5-(9-(1-methylpiperidin-4-ylamino)benzo[4,5]imidazo[1,2-a]pyridin-2-yl)pyridin-2-yl)oxy)propan-1-amine]",–,–
53,> 10000,> 10000,"CN1CCN(c2ccc(-c3cccc4nc5ccc(N6CCOCC6)cc5n34)cn2)CC1 [Example 16, 1-(6-(4-methylpiperazin-1-yl)pyridin-3-yl)-8-morpholinobenzo[4,5]imidazo[1,2-a]pyridine]",–,–
37,3250,2620,"C[C@@H]1CN(c2ccc(-c3cccc4nc5ccc(N6CCOCC6)cc5n34)cn2)C[C@H](C)N1C [Example 17, 1-(6-((3S,5R)-3,4,5-trimethylpiperazin-1-yl)pyridin-3-yl)-8-morpholinobenzo[4,5]imidazo[1,2-a]pyridine]",–,–
88,2100,2400,"CN(C)C1CCN(c2ccc(-c3ccc4nc5cccc(N6CCOCC6)c5n4c3)cn2)CC1 [Example 42, N,N-dimethyl-1-(5-(9-morpholinobenzo[4,5]imidazo[1,2-a]pyridin-2-yl)pyridin-2-yl)piperidin-4-amine]",–,–
99,1050,542,"CN1CCN(c2cccc3nc4ccc(-c5ccc(N6CCC(N(C)C)CC6)c(C(F)(F)F)c5)cn4c23)CC1 [Example 43, N,N-dimethyl-1-(2-(trifluoromethyl)-4-(9-(4-methylpiperazin-1-yl)benzo[4,5]imidazo[1,2-a]pyridin-2-yl)-phenyl)piperidin-4-amine]",–,–
97,> 500,> 100000,"CN(C)CCCOc1ccc(-c2ccc3nc4cccc(N5CCN(C)CC5)c4n3c2)cc1C(F)(F)F [Example 44, N,N-dimethyl-3-(2-(trifluoromethyl)-4-(9-(4-methylpiperazin-1-yl)benzo[4,5]imidazo[1,2-a]pyridin-2-yl)phenoxy)propan-1-amine]",–,–
100,> 500,322,"C[C@@H]1CN(c2cccc3nc4ccc(-c5ccc(N6CCC(N(C)C)CC6)cc5)cn4c23)C[C@H](C)N1C [Example 45, N,N-dimethyl-1-(4-(9-((3S,5R)-3,4,5-trimethylpiperazin-1-yl)benzo[4,5]imidazo[1,2-a]pyridin-2-yl)phenyl)piperidin-4-amine]",–,–
100,152,55,"C[C@@H]1CN(c2cccc3nc4ccc(-c5ccc(N6CCC(N(C)C)CC6)c(F)c5)cn4c23)C[C@H](C)N1C [Example 46, N,N-dimethyl-1-(2-fluoro-4-(9-((3S,5R)-3,4,5-trimethylpiperazin-1-yl)benzo[4,5]imidazo[1,2-a]pyridin-2-yl)phenyl)piperidin-4-amine]",–,–
100,166,60.5,"C[C@@H]1CN(c2cccc3nc4ccc(-c5ccc(N6CCC(N(C)C)CC6)c(Cl)c5)cn4c23)C[C@H](C)N1C [Example 47, N,N-dimethyl-1-(2-chloro-4-(9-((3S,5R)-3,4,5-trimethylpiperazin-1-yl)benzo[4,5]imidazo[1,2-a]pyridin-2-yl)phenyl)piperidin-4-amine]",–,–
100,> 1000,> 1000,"C[C@@H]1CN(c2cccc3nc4ccc(-c5ccc(N6CCC(N(C)C)CC6)c(C(F)(F)F)c5)cn4c23)C[C@H](C)N1C [Example 48, N,N-dimethyl-1-(2-(trifluoromethyl)-4-(9-((3S,5R)-3,4,5-trimethylpiperazin-1-yl)benzo[4,5]imidazo[1,2-a]pyridin-2-yl)phenyl)piperidin-4-amine]",–,–
81,40.9,41.4,"CN(C)C1CCN(c2ccc(-c3ccc4nc5cccc(N6CCC(N(C)C)CC6)c5n4c3)cc2)CC1 [Example 56, N,N-dimethyl-1-(4-(9-(4-(dimethylamino)piperidin-1-yl)benzo[4,5]imidazo[1,2-a]pyridin-2-yl)phenyl)piperidin-4-amine]",inhibited the growth,inhibited the growth
